Experimental data from patent US20210205341A1, “COMPOSITIONS COMPRISING HUMAN MILK OLIGOSACCHARIDES FOR USE IN INFANTS OR YOUNG CHILDREN TO PREVENT OR TREAT A HEALTH DISORDER BY INCREASING GLP-1 SECRETION” (NESTEC S.A., priority 2016, published 2021).

Experiments:
GLP-1 secretion = assay: GLP-1 plasma concentration in IUGR rats fed HMO-supplemented regimen; assay type: in vivo, rat
Excerpt: A wide group of pregnant female rats were bought from Charles River laboratories. They were submitted to food restriction of 60% during the last 10 days of gestation.
Immediately after birth (d=1), the born rat pups—subjects of the experiment—were split into several groups: • IUGR rats (control) (n=20) • IUGR rats+HMO (test groups): During the experiment, they were reared by their mothers for 21 days and supplemented with HMOs (2FL or LNnT). At weaning, they were fed a diet supplemented with the same HMOs, see details below. There were 2 different groups: • IUGR rats+2FL (n=10) • IUGR rats+LNnT (n=10)
IUGR (intrauterine growth restricted) rats were chosen as control model since they have a higher appetite to compensate their growth retardation, and therefore they may not eat in a healthy way with standard diets (e.g. they may have a higher total weight and/or adipose mass increase over their lean mass increase) which may lead to the development and programming for future health conditions including later in life obesity or future related comorbidities like diabetes.
All rat pups were fed from birth (d=1) up to 57 days (d=57) based on the following protocol: • day 1-day 6: all groups of rats were nursed by dam (mothers' milk only) • day 7-day 21: all rats were nursed by dam (mothers' milk only). But in the test groups, 3 g/kg body weight of a HMO were also administered by gavage: 2FL: 3 g/kg body weight, for the group IUGR rats+2FL LNnT: 3 g/kg body weight, for the group IUGR rats+LNnT • day 22-day 57: rats were separated from their mothers and they had the following regimen: • IUGR rats (control): fed with a control diet (composition detailed in table 2), no HMO supplementation
IUGR rats+HMO (test groups): fed with the same diet but supplemented with 4.5 wt % of a HMO (maltodextrin in the total control diet was replaced by the respective tested HMO):
4.5 wt % of 2FL for the group IUGR rats+2FL
4.5 wt % of LNnT for the group IUGR rats+LNnT
GLP-1 secretion in the rats was assessed by determination of its circulating concentration in plasma.

NCI-H716 cells = assay: Calcium assay in NCI-H716 cells (fluorescent calcium sensitive dye); assay type: cell-based, human; settings: for significance of increase in fluorescence ratio: 5 mg/mL, 10 mg/mL and 20 mg/mL, p<0.05 vs negative control, two-sided t-test; for concentration dependence of calcium response: 1-20 mg/mL; for fluorescence ratio (intracellular calcium response): all tested concentrations: 1, 5, 10 and 20 mg/mL, vs buffer negative control
Excerpt: NCI-H716 is a cell line derived from human L-cells, the enteroendocrine cells that secrete GLP-1, and it is often used as a model of GLP-1 secretion. Unstimulated NCI-H716 cells secrete a basal level of GLP-1 and activation of the cells leads to dose-dependent increase in GLP-1 secretion. Activation of the NCI-H716 cells and subsequent release of GLP-1 can be triggered by nutrients such as palmitic acid, oleic acid, and meat hydrolysate, Gastrin Releasing Peptide (GRP), the cholinergic molecule Carbachol, bitter compounds such as denatonium, ginsenosides and other molecules.
Activation of NCI-H716 cells by ionomycin, GRP, denatonium, or ginsenosides leads to increased intracellular calcium. Elevation of intracellular calcium is therefore a marker of cell activation and in NCI-H716 cells it could be considered as an indicator of GLP-1 release.
A calcium assay was used to determine if NCI-H716 cells respond to human milk oligosaccharides (sialylated oligosaccharides 3SL and 6SL) or components/precursors thereof (lactose and sialic acid). In this assay, cultured NCI-H716 cells were loaded with a fluorescent calcium sensitive dye then stimulated with the HMOs. The response to the stimulus was measured by change in fluorescence ratio in consequence of intracellular calcium increase. The tested HMOs were 3′-sialyllactose (3SL) and 6′-sialyllactose (6SL). They were tested individually.
GRP (Gastrin Releasing Peptide): positive control
Tested HMOs concentrations: 1 mg/mL, 5 mg/mL, 10 mg/mL and 20 mg/mL
Tested lactose and sialic acid concentrations: 5.5 mg/mL and 4.72 mg/mL respectively (correspond to the amounts contained in 10 mg/mL of 3SL, in order to make a suitable comparison with 10 mg/mL of 3SL)

[1] = d=57, 3 g/kg by gavage day 7-21, then diet with 4.5 wt % HMO day 22-57, FIG. 1A partial results
[2] = d=57, 3 g/kg by gavage day 7-21, then diet with 4.5 wt % HMO day 22-57, FIG. 1B final results

Compound | GLP-1 plasma concentration increase in comparison with the control group (GLP-1 secretion; [1]) [%] | GLP-1 plasma concentration increase in comparison with the control group (GLP-1 secretion; [2]) [%] | significance of increase in fluorescence ratio (NCI-H716 cells) | concentration dependence of calcium response (NCI-H716 cells) | fluorescence ratio (intracellular calcium response) (NCI-H716 cells) | other results
2′-fucosyllactose [2FL] | 200 | 164 |  |  |  | 
CC(=O)N[C@H]1[C@H](O[C@H]2[C@@H](O)[C@@H](CO)O[C@@H](O[C@H]3[C@H](O)[C@@H](O)C(O)O[C@@H]3CO)[C@@H]2O)O[C@H](CO)[C@@H](O[C@@H]2O[C@H](CO)[C@H](O)[C@H](O)[C@H]2O)[C@@H]1O (mixture of isomers) [LNnT, lacto-N-neotetraose] | 43 | 13 |  |  |  | 
CC(=O)N[C@H]1[C@H]([C@H](O)[C@H](O)CO)O[C@@](O[C@H]2[C@@H](O)[C@@H](CO)O[C@@H](O[C@H]3[C@H](O)[C@@H](O)C(O)O[C@@H]3CO)[C@@H]2O)(C(=O)O)C[C@@H]1O (stereo partly drawn) [3SL, (6R)-5-Acetamido-3,5-dideoxy-6-[(1R,2R)-1,2,3-trihydroxypropyl]-β-L-threo-hex-2-ulopyranonosyl-(2->3)-β-D-galactopyranosyl-(1->4)-D-glucopyranose] |  |  | significant | clear concentration dependent calcium response | enhanced | 
CC(=O)N[C@H]1[C@H]([C@H](O)[C@H](O)CO)O[C@@](OC[C@H]2O[C@@H](O[C@H]3[C@H](O)[C@@H](O)C(O)O[C@@H]3CO)[C@H](O)[C@@H](O)[C@H]2O)(C(=O)O)C[C@@H]1O (stereo partly drawn) [6SL, (6R)-5-Acetamido-3,5-dideoxy-6-[(1R,2R)-1,2,3-trihydroxypropyl]-β-L-threo-hex-2-ulopyranonosyl-(2->6)-β-D-galactopyranosyl-(1->4)-D-glucopyranose] |  |  | significant | clear concentration dependent calcium response | enhanced | 
OC[C@H]1O[C@@H](O[C@H]2[C@H](O)[C@@H](O)C(O)O[C@@H]2CO)[C@H](O)[C@@H](O)[C@H]1O (stereo partly drawn) [Lactose, reference compound] |  |  |  |  |  | activation of NCI-H716 cells (calcium response) (NCI-H716 cells; 5.5 mg/mL (amount contained in 10 mg/mL 3SL)): did not activate the cells
CC(=O)N[C@H]1[C@H]([C@H](O)[C@H](O)CO)OC(O)(C(=O)O)C[C@@H]1O (stereo partly drawn) [sialic acid, N-acetylneuraminic acid, reference compound] |  |  |  |  |  | activation of NCI-H716 cells (calcium response) (NCI-H716 cells; 4.72 mg/mL (amount contained in 10 mg/mL 3SL)): did not activate the cells
